Laboratory results published in US4477458A, “Thiazolidine derivatives and their mucolytic compositions and methods” (Camillo Corvi S.p.A., priority 1981, dated 1984).
Where a name gives a salt, the structure may show the parent alone.

Key:
[1] = system: mucus production of rabbit; experiment: Activity on mucus production of rabbit (method of R. Scuri and Coll.); format: in vivo; details: for Mucoproduction at hours 0 - 4: mean ± E.S.
gastric mucin of the pig = experiment: "in vitro" viscosity of gastric mucin of the pig (Contraves Rehomat microviscosimeter); details: conc. 2 %; for Viscosity of gastric mucin: 0.1 ml; for Viscosity of gastric mucin, Var. %: vs Mucin + H2O
Description: The pharmacological activity was measured by studying the effect on the compound (CO/1177) on: (c) "in vitro" viscosity of gastric mucin of the pig by using, for the viscometer measures, a Contraves Rehomat microviscosimeter at 15 automatic scanning speeds.

Acute toxicity, rat = details: in vivo
Description: (§1) The acute and subacute toxicity tests were performed by using Swiss mice and Wistar rats of both sexes.

Acute toxicity, mouse = details: in vivo
Description: as §1

Acute toxicity, rabbit = details: in vivo, iv
[2] = system: mucus of sound animals (rabbits); experiment: Fluidizing activity - viscosity of mucus of sound animals (Contraves Rehomat microviscosimeter); format: in vivo, rabbit; details: 20 mg/kg i.v.
Description: (§2) The pharmacological activity was measured by studying the effect on the compound (CO/1177) on:
(§3) (b) viscosity of mucus of sound animals (rabbits) and/or of animals made bronchitic experimentally by using, for the viscosimeter measures, a Contraves Rehomat microviscosimeter at 15 automatic scanning speeds;

[3] = system: mucus of animals made bronchitic experimentally; experiment: Fluidizing activity - viscosity of mucus of experimentally bronchitic animals (Contraves Rehomat microviscosimeter); format: in vivo, rabbit; details: 20 mg/kg i.v.
Description: as §2, §3

[4] = Oryctolagus cuniculus, iv, 5 mg/kg i.v., 0-4 h vs -4-0 h, read-out: Mucoproduction Var. %
[5] = Oryctolagus cuniculus, iv, 10 mg/kg i.v., 0-4 h vs -4-0 h, read-out: Mucoproduction Var. %
[6] = Oryctolagus cuniculus, po, 400 mg/kg os, 0-4 h vs -4-0 h, read-out: Mucoproduction Var. %
[7] = Oryctolagus cuniculus, po, 600 mg/kg os, 0-4 h vs -4-0 h, read-out: Mucoproduction Var. %

CC(=O)N[C@@H](CS)C(=O)O [N--Acetylcysteine, reference compound]
Mucoproduction at hours 0 - 4 ([1]; 5 mg/kg i.v.): 29.058 ± 0.946 mg/h
Mucoproduction at hours 0 - 4 ([1]; 10 mg/kg i.v.): 30.988 ± 1.078 mg/h
Mucoproduction at hours 0 - 4 ([1]; 400 mg/kg os): 22.713 ± 0.947 mg/h
Mucoproduction at hours 0 - 4 ([1]; 600 mg/kg os): 32.512 ± 1.365 mg/h
change in vivo at 5 mg/kg [1, 4]: 29.2%
change in vivo at 10 mg/kg [1, 5]: 49.8%
change in vivo at 400 mg/kg [1, 6]: 4.7%
change in vivo at 600 mg/kg [1, 7]: 39.4%
Viscosity of gastric mucin (gastric mucin of the pig; speed 17.4 g/min): 25.64 cps
Viscosity of gastric mucin (gastric mucin of the pig; speed 25 g/min): 25.20 cps
Viscosity of gastric mucin (gastric mucin of the pig; speed 33.6 g/min): 24.30 cps
Viscosity of gastric mucin (gastric mucin of the pig; speed 44.3 g/min): 23.32 cps
Viscosity of gastric mucin (gastric mucin of the pig; speed 56.1 g/min): 23.77 cps
Viscosity of gastric mucin (gastric mucin of the pig; speed 77.9 g/min): 20.30 cps
Viscosity of gastric mucin (gastric mucin of the pig; speed 113.2 g/min): 19.41 cps
Viscosity of gastric mucin (gastric mucin of the pig; speed 152 g/min): 17.94 cps
Viscosity of gastric mucin (gastric mucin of the pig; speed 200 g/min): 16.19 cps
Viscosity of gastric mucin (gastric mucin of the pig; speed 266.8 g/min): 14.52 cps
Viscosity of gastric mucin (gastric mucin of the pig; speed 352 g/min): 13.70 cps
Viscosity of gastric mucin, Var. % (gastric mucin of the pig; speed 17.4 g/min): -11.9%
Viscosity of gastric mucin, Var. % (gastric mucin of the pig; speed 25 g/min): -8.1%
Viscosity of gastric mucin, Var. % (gastric mucin of the pig; speed 44.3 g/min): -12.4%
Viscosity of gastric mucin, Var. % (gastric mucin of the pig; speed 56.1 g/min): -8.1%
Viscosity of gastric mucin, Var. % (gastric mucin of the pig; speed 77.9 g/min): -11.1%
Viscosity of gastric mucin, Var. % (gastric mucin of the pig; speed 113.2 g/min): -10.1%
Viscosity of gastric mucin, Var. % (gastric mucin of the pig; speed 152 g/min): -8%
Viscosity of gastric mucin, Var. % (gastric mucin of the pig; speed 200 g/min): -11.1%
Viscosity of gastric mucin, Var. % (gastric mucin of the pig; speed 266.8 g/min): -12.1%
Viscosity of gastric mucin, Var. % (gastric mucin of the pig; speed 352 g/min): -8.1%

N[C@@H](CSCC(=O)O)C(=O)O [S--Carboxymethylcysteine]
Mucoproduction at hours 0 - 4 ([1]; 400 mg/kg os): 35.339 ± 1.376 mg/h
Mucoproduction at hours 0 - 4 ([1]; 600 mg/kg os): 32.120 ± 1.630 mg/h
change in vivo at 400 mg/kg [1, 6]: 31.2%
change in vivo at 600 mg/kg [1, 7]: 34.2%

O=C(O)c1ccccc1C(=O)N1CCSC1 [CO/1177, 2-(1,3-thiazolidin-3-yl)-carbonyl-benzoic acid (Na salt)]
Mucoproduction at hours 0 - 4 ([1]; 2.5 mg/kg i.v.): 52.760 ± 20.29 mg/h
Mucoproduction at hours 0 - 4 ([1]; 5 mg/kg i.v.): 37.650 ± 0.231 mg/h
Mucoproduction at hours 0 - 4 ([1]; 10 mg/kg i.v.): 49.250 ± 6.020 mg/h
Mucoproduction at hours 0 - 4 ([1]; 100 mg/kg os): 34.320 ± 5.850 mg/h
Mucoproduction at hours 0 - 4 ([1]; 200 mg/kg os): 86.250 ± 10.80 mg/h
Mucoproduction at hours 0 - 4 ([1]; 400 mg/kg os): 30.730 ± 7.630 mg/h
change in vivo at 2.5 mg/kg ([1]; Oryctolagus cuniculus, iv, 2.5 mg/kg i.v., 0-4 h vs -4-0 h, read-out: Mucoproduction Var. %): 32%
change in vivo at 5 mg/kg [1, 4]: 34.6%
change in vivo at 10 mg/kg [1, 5]: 71%
change in vivo at 100 mg/kg ([1]; Oryctolagus cuniculus, po, 100 mg/kg os, 0-4 h vs -4-0 h, read-out: Mucoproduction Var. %): 16.3%
change in vivo at 200 mg/kg ([1]; Oryctolagus cuniculus, po, 200 mg/kg os, 0-4 h vs -4-0 h, read-out: Mucoproduction Var. %): 51.2%
change in vivo at 400 mg/kg [1, 6]: 97.6%
LD50 (Acute toxicity, rat; iv): > 5000 mg/kg
LD50 (Acute toxicity, rat; po): > 5000 mg/kg
Viscosity of gastric mucin (gastric mucin of the pig; speed 17.4 g/min): 24.87 cps
Viscosity of gastric mucin (gastric mucin of the pig; speed 25 g/min): 22.39 cps
Viscosity of gastric mucin (gastric mucin of the pig; speed 33.6 g/min): 24.05 cps
Viscosity of gastric mucin (gastric mucin of the pig; speed 44.3 g/min): 22.92 cps
Viscosity of gastric mucin (gastric mucin of the pig; speed 56.1 g/min): 23.14 cps
Viscosity of gastric mucin (gastric mucin of the pig; speed 77.9 g/min): 20.91 cps
Viscosity of gastric mucin (gastric mucin of the pig; speed 113.2 g/min): 20.88 cps
Viscosity of gastric mucin (gastric mucin of the pig; speed 152 g/min): 18.81 cps
Viscosity of gastric mucin (gastric mucin of the pig; speed 200 g/min): 17.24 cps
Viscosity of gastric mucin (gastric mucin of the pig; speed 266.8 g/min): 15.48 cps
Viscosity of gastric mucin (gastric mucin of the pig; speed 352 g/min): 14.29 cps
Viscosity of gastric mucin, Var. % (gastric mucin of the pig; speed 17.4 g/min): -10.9%
Viscosity of gastric mucin, Var. % (gastric mucin of the pig; speed 25 g/min): -19.1%
Viscosity of gastric mucin, Var. % (gastric mucin of the pig; speed 33.6 g/min): -10.1%
Viscosity of gastric mucin, Var. % (gastric mucin of the pig; speed 44.3 g/min): -14.1%
Viscosity of gastric mucin, Var. % (gastric mucin of the pig; speed 56.1 g/min): -11%
Viscosity of gastric mucin, Var. % (gastric mucin of the pig; speed 77.9 g/min): -15.4%
Viscosity of gastric mucin, Var. % (gastric mucin of the pig; speed 113.2 g/min): -8.1%
Viscosity of gastric mucin, Var. % (gastric mucin of the pig; speed 152 g/min): -9.1%
Viscosity of gastric mucin, Var. % (gastric mucin of the pig; speed 200 g/min): -8.1%
Viscosity of gastric mucin, Var. % (gastric mucin of the pig; speed 266.8 g/min): -10%
Viscosity of gastric mucin, Var. % (gastric mucin of the pig; speed 352 g/min): -7.1%
LD50 (Acute toxicity, mouse; iv): 3000 mg/kg
LD50 (Acute toxicity, mouse; po): > 5000 mg/kg
LD50 (Acute toxicity, rabbit): ~3500 mg/kg
Viscosity Var. % ([2]; speed 17.4 g/min): -100%
Viscosity, time 0-24 ([2]; speed 17.4 g/min): 0 cps
Viscosity Var. % ([2]; speed 25 g/min): -81.7%
Viscosity, time 0-24 ([2]; speed 25 g/min): 0.88 cps
Viscosity Var. % ([2]; speed 33.6 g/min): -78.6%
Viscosity, time 0-24 ([2]; speed 33.6 g/min): 1.97 cps
Viscosity Var. % ([2]; speed 44.3 g/min): -71.5%
Viscosity, time 0-24 ([2]; speed 44.3 g/min): 2.00 cps
Viscosity Var. % ([2]; speed 56.1 g/min): -67.6%
Viscosity, time 0-24 ([2]; speed 56.1 g/min): 2.43 cps
Viscosity Var. % ([2]; speed 77.9 g/min): -53.6%
Viscosity, time 0-24 ([2]; speed 77.9 g/min): 2.55 cps
Viscosity Var. % ([2]; speed 113.2 g/min): -37.7%
Viscosity, time 0-24 ([2]; speed 113.2 g/min): 2.25 cps
Viscosity Var. % ([2]; speed 152 g/min): -36.3%
Viscosity, time 0-24 ([2]; speed 152 g/min): 2.18 cps
Viscosity Var. % ([2]; speed 200 g/min): -41.4%
Viscosity, time 0-24 ([2]; speed 200 g/min): 2.04 cps
Viscosity Var. % ([2]; speed 266.8 g/min): -39.2%
Viscosity, time 0-24 ([2]; speed 266.8 g/min): 1.94 cps
Viscosity Var. % ([2]; speed 352 g/min): -37.4%
Viscosity, time 0-24 ([2]; speed 352 g/min): 1.91 cps
Viscosity, time 0-24 ([3]; speed 17.4 g/min): 50.30 cps
Viscosity Var. % ([3]; speed 25 g/min): -58.4%
Viscosity, time 0-24 ([3]; speed 25 g/min): 41.5 cps
Viscosity Var. % ([3]; speed 33.6 g/min): -60%
Viscosity, time 0-24 ([3]; speed 33.6 g/min): 28.70 cps
Viscosity Var. % ([3]; speed 44.3 g/min): -56.6%
Viscosity, time 0-24 ([3]; speed 44.3 g/min): 22.4 cps
Viscosity Var. % ([3]; speed 56.1 g/min): -51.9%
Viscosity, time 0-24 ([3]; speed 56.1 g/min): 14.50 cps
Viscosity Var. % ([3]; speed 77.9 g/min): -60.9%
Viscosity, time 0-24 ([3]; speed 77.9 g/min): 10.7 cps
Viscosity Var. % ([3]; speed 113.2 g/min): -63.8%
Viscosity, time 0-24 ([3]; speed 113.2 g/min): 6.7 cps
Viscosity Var. % ([3]; speed 152 g/min): -68.1%
Viscosity, time 0-24 ([3]; speed 152 g/min): 5.2 cps
Viscosity Var. % ([3]; speed 200 g/min): -66.7%
Viscosity, time 0-24 ([3]; speed 200 g/min): 4.0 cps
Viscosity Var. % ([3]; speed 266.8 g/min): -71.8%
Viscosity, time 0-24 ([3]; speed 266.8 g/min): 2.4 cps
Viscosity Var. % ([3]; speed 352 g/min): -68.9%
Viscosity, time 0-24 ([3]; speed 352 g/min): 1.9 cps

O=C(O)c1ccccc1C(=O)N1CCSC1c1ccccc1 (centres unmarked) [CO/1220, 2-[(2-phenyl)-1,3-thiazolidin-3-yl]-carbonyl-benzoic acid (Na salt)]
Mucoproduction at hours 0 - 4 ([1]; 10 mg/kg i.v.): 31.300 ± 2.240 mg/h
change in vivo at 10 mg/kg [1, 5]: 43.5%

CCCC1SCCN1C(=O)c1ccccc1C(=O)O (centres unmarked) [CO/1226, 2-[(2-propyl)-1,3-thiazolidin-3-yl]-carbonyl-benzoic acid (Na salt)]
Mucoproduction at hours 0 - 4 ([1]; 10 mg/kg i.v.): 29.730 ± 4.510 mg/h
change in vivo at 10 mg/kg [1, 5]: 26.9%
